According to patent US4525358A, “2-[4-(Diphenylmethyl)-1-piperazinyl]-acetic acids and their amides” (UCB Pharmaceuticals, Inc., priority 1981, dated 1985):
Read-outs that look alike come from different tables or passages of the source.

Legend:
[1] = test system: bronchospasms induced by histamine; test: inhibition of histamine-induced bronchospasms (Konzett and Roessler), antihistaminic activity; assay type: in vivo, guinea pig; settings: for ED50: Cavia porcellus, iv, read-out: ID 50, inhibition of bronchospasms induced by histamine
Protocol: (§1) Anaesthetized and curarized guinea pigs are subjected to artificial ventilation. The endotracheal pressure is recorded. Repetitive bronchial spasms are induced by successive and progressive intravenous injections of serotonin and histamine, respectively. The test compounds are also administered intravenously.

mice = settings: intraperitoneal, two animals out of three
Source text: In the following Table IV, the lethal doses in mg/kg (two animals out of three) are given for compounds of the invention when administered intraperitoneally in mice:

[2] = test system: general behaviour of mice; test: general behaviour of mice (Irwin's test), tranquilization; assay type: in vivo
[3] = test system: bronchospasms induced by serotonin; test: inhibition of serotonin-induced bronchospasms (Konzett and Roessler), spasmolytic activity; assay type: in vivo, guinea pig; settings: for ED50: Cavia porcellus, iv, read-out: ID 50, inhibition of bronchospasms induced by serotonin
Protocol: as §1

[4] = test system: passive cutaneous anaphylaxis; test: passive cutaneous anaphylaxis test (PCA), antiallergic activity; assay type: in vivo; settings: rats; for ED50: Rattus norvegicus, po, read-out: ID 50 per os (reduction of 50% of the surface area of the colored spot); for ED50 / antiallergic activity (PCA), in words: per os
Protocol: This activity is determined in rats by means of the passive cutaneous anaphylaxis test (PCA) (see J. GOOSE and A. M. J. N. BlAIR, Immunology, 16, (1969), 749-760; and […] and D. ROEMER, Arzneimittel-Forschung, 28, (5), (1978), 770-782). Female rats are used, the sides of which have been partly shaved. Into the zone thus shaved there is injected intradermally, for passive sensitization of the animals, 0.05 ml of IGE antiovalbumin serum at a dilution such that, at the time of the PCA test, a distinct spot with a surface area of about 100 mm^2 appears at the point of injection. […] At the point of intradermal injection, there appears a distinct blue spot, the surface of which is measured. In order to test the activity of the compounds according to the present invention, the procedure is carried out in the same manner; however, the test compound is administered orally 72 hours after injection of the serum; 15 minutes after this administration, 0.25 ml of the solution of the allergen is injected intravenously; 30 minutes after the administration of the allergen, the surface of the blue spot is measured.

[5] = J. med. Chem. 11 (1968), 390-391; cited from earlier work
[6] = intravenous; cited from earlier work
[7] = Belgian Patent Specification No. 763,609; cited from earlier work
[8] = guinea pig, intravenous, histamine
[9] = guinea pig, intravenous, serotonin

SMILES	ED50 [1, 8] [µmol/kg]	Lethal dose (2/3) (mice) [mg/kg]	Tranquilizing dose (first manifestations of tranquilization) ([2]; male mice, intraperitoneal) [mg/kg]	ED50 [3, 9] [µmol/kg]	ED50 ([4]; 15 minutes before allergen) [µmol/kg]	further results
Cl.Cl.O=C(O)COCCOCCN1CCN(C(c2ccccc2)c2ccccc2)CC1 [L, 2-[2-[2-[4-(diphenylmethyl)-1-piperazinyl]ethoxy]ethoxy]-acetic acid dihydrochloride]	0.39	942	141	5.69		
O=C(O)CN1CCN(C(c2ccccc2)c2ccc(Cl)cc2)CC1 (centres unmarked) [Compound 4, reference compound]	7.8			> 32	> 320	activity with regard to bronchospasms induced by histamine (antihistaminic), in words [1, 8]: considerbly less active; antiallergic activity (PCA), in words [4]: of little interest; activity with regard to bronchospasms induced by serotonin (antispasmodic), in words [3, 9]: considerbly less active
O=C1Nc2ccc(Cl)cc2C(c2ccccc2)=NC1O (centres unmarked) [Oxazepam, 7-chloro-1,3-dihydro-3-hydroxy-5-phenyl:2H-1,4-benzodiazepin-2-one, reference compound]			2.6			
Cl.Cl.NC(=O)COCCOCCN1CCN(C(c2ccccc2)c2ccccc2)CC1 [F, 2-[2-[2-[4-(Diphenylmethyl)-1-piperazinyl]ethoxy]ethoxy]-acetamide dihydrochloride]	0.25	282	94	0.32	10.6	
NC(=O)COCCN1CCN(C(c2ccccc2)c2ccc(Cl)cc2)CC1 (centres unmarked) [B, 2-[2-[4-[(4-chlorophenyl)phenylmethyl]-1-piperazinyl]ethoxy]-acetamide]	0.45	232	38.7	0.88	36.5	
NC(=O)COCCN1CCN(C(c2ccccc2)c2ccc(F)cc2)CC1 (centres unmarked) [C, 2-[2-[4-[(4-fluorophenyl)phenylmethyl]-1-piperazinyl]ethoxy]-acetamide]	0.71	386	115	0.94	18.9	
NC(=O)CN1CCN(C(c2ccccc2)c2ccc(Cl)cc2)CC1 (centres unmarked) [Compound 2, 2-[4-[(4-chlorophenyl)phenylmethyl]-1-piperazinyl]-acetamide, reference compound]	3.1			11	> 320	activity with regard to bronchospasms induced by histamine (antihistaminic), in words [1, 8]: considerbly less active; activity as a hypocholesteremic agent [5]: not very encouraging; antiallergic activity (PCA), in words [4]: of little interest; activity with regard to bronchospasms induced by serotonin (antispasmodic), in words [3, 9]: considerbly less active
OCCOCCN1CCN(C(c2ccccc2)c2ccc(Cl)cc2)CC1 (centres unmarked) [Hydroxyzine, 2-[2-[4-[(4-chlorophenyl)phenylmethyl]-1-piperazinyl]-ethoxy]-ethanol, reference compound]						Tranquilizing dose (first manifestations of tranquilization) ([2]; mouse, in vivo, ip): 27 mg/kg
O=C(O)c1cc(=O)c2c(OCC(O)COc3cccc4oc(C(=O)O)cc(=O)c34)cccc2o1 [sodium cromoglycate]						antiasthmatic activity [6]: well known for its antiasthmatic activity; ID 50 per os (reduction of 50% of the surface area of the colored spot) ([4]; 15 minutes before allergen): inactive; antiallergic activity (PCA), in words [4]: inactive
COc1ccc(C(c2ccccc2)N2CCN(CCOCC(N)=O)CC2)cc1.Cl.Cl (centres unmarked) [E, 2-[2-[4-[(4-methoxyphenyl)phenylmethyl]-1-piperazinyl]ethoxy]-acetamide dihydrochloride]	0.67	456	136	10		
O=C([O-])COCCN1CCN(C(c2ccccc2)c2ccc(Cl)cc2)CC1.[K+] (centres unmarked) [H, potassium 2-[2-[4-[(4-chlorophenyl)phenylmethyl]-1-piperazinyl]ethoxy]-acetate]			46.2			ED50 [1]: 0.23 µmol/kg; ED50 [3]: 7 µmol/kg
Cl.Cl.NC(=O)COCCOCCN1CCN(C(c2ccccc2)c2ccc(Cl)cc2)CC1 (centres unmarked) [G, 2-[2-[2-[4-[(4-chlorophenyl)phenylmethyl]-1-piperazinyl]ethoxy]ethoxy]-acetamide dihydrochloride]	1.14	339	34	0.66		
O=C(O)COCCN1CCN(C(c2ccccc2)c2ccc(Cl)cc2)CC1 (centres unmarked) [J, 2-[2-[4-[(4-chlorophenyl)phenylmethyl]-1-piperazinyl]ethoxy]-acetic acid]			138			antihistaminic activity retained ([1]; guinea pig, intravenous, 1 μmol/kg single dose, after 5 hours): 100%; ID 50, inhibition of bronchospasms induced by histamine [1, 8]: 0.20 µmol/kg; ID 50, inhibition of bronchospasms induced by serotonin [3, 9]: 7.3 µmol/kg
Cl.Cl.NC(=O)COCCN1CCN(C(c2ccccc2)c2ccccc2Cl)CC1 (centres unmarked) [D, 2-[2-[4-[(2-chlorophenyl)phenylmethyl]-1-piperazinyl]ethoxy]-acetamide dihydrochloride]	0.63	460	> 460	1.1		
NC(=O)COCCN1CCN(C(c2ccccc2)c2ccccc2)CC1 [A, 2-[2-[4-(Diphenylmethyl)-1-piperazinyl]ethoxy]-acetamide]	0.23	255		0.78		
O=C(O)CN1CCN(C(c2ccccc2)c2ccccc2)CC1 [Compound 3, 2-[4-(diphenylmelthyl)-1-piperazinyl]-acetic acid, reference compound]	5			> 32	> 320	activity with regard to bronchospasms induced by histamine (antihistaminic), in words [1, 8]: considerbly less active; antiallergic activity (PCA), in words [4]: of little interest; activity with regard to bronchospasms induced by serotonin (antispasmodic), in words [3, 9]: considerbly less active
NC(=O)CN1CCN(C(c2ccccc2)c2ccccc2)CC1 [Compound 1, 2-[4-(diphenylmethyl)-1-piperazinyl]-acetamide, reference compound]	2.1			77	> 320	activity with regard to bronchospasms induced by histamine (antihistaminic), in words [1, 8]: considerbly less active; diuretic activity [7]: possesses a diuretic activity; antiallergic activity (PCA), in words [4]: of little interest; activity with regard to bronchospasms induced by serotonin (antispasmodic), in words [3, 9]: considerbly less active
O.O=C(O)COCCN1CCN(C(c2ccccc2)c2ccc(F)cc2)CC1 (centres unmarked) [N, 2-[2-[4-[(4-fluorophenyl)phenylmethyl]-1-piperazinyl]ethoxy]-acetic acid hydrate]	0.08	372	372	2.1	10.2	
O=C(O)COCCN1CCN(C(c2ccccc2)c2ccccc2)CC1 [K, 2-[2-[4-(diphenylmethyl)-1-piperazinyl]ethoxy]-acetic acid]	0.093	708	106	9.5		
Cn1c(=O)c2[nH]cnc2n(C)c1=O [Theophylline, reference compound]						ED50 [1]: 10 µmol/kg; ED50 [3]: 10 µmol/kg
O=C(O)COCCN1CCN(C(c2ccccc2)c2ccc(Cl)cc2)CC1 (centres unmarked) [I, 2-[2-[4-[(4-chlorophenyl)phenylmethyl]-1-piperazinyl]ethoxy]-acetic acid]	0.205			9.44		
Cl.Cl.O=C(O)COCCOCCN1CCN(C(c2ccccc2)c2ccc(Cl)cc2)CC1 (centres unmarked) [M, 2-[2-[2-[4-[(4-chlorophenyl)phenylmethyl]-1-piperazinyl]ethoxy]ethoxy]-acetic acid dihydrochloride]	0.79	505	505	10		
